Source: patent US12193994B2, “Combination of a cell therapy and a gamma secretase inhibitor” (Juno Therapeutics, Inc., priority 2017, dated 2025)

Legend:
OPM2 target cells = test: Similar study: concentration dependence of anti-BCMA CAR-T cytolytic function; assay type: cell-based; conditions: Homo sapiens, OPM-2; OPM2, one exemplary donor; read-out: increasing anti-BCMA CAR-T killing of BCMA-expressing target cells, IC50
Procedure: Anti-BCMA CAR-T cells generated as described in this Example above were cultured at 37° C. with either OPM2 or RPMI-8226 target cells at an effector to target (E:T) ratio of 0.3:1. The target cells were labeled with NucLight Red (NLR), to permit tracking of target cells by microscopy. Cultures were incubated in the absence of LY3039478 or in the presence of LY3039478 at concentrations of 0.1 nM, 1 nM, 10 nM, 100 nM, 1000 nM, 10000 nM or 100000 nM (the range covering the estimated human pharmacokinetic range is shown by the boxes in FIGS. 3A-3D). As a control, target cells were incubated with LY3039478 but without culture with CAR-T cells. Cytolytic activity was assessed by measuring the loss of viable target cells after about 150 hours, as determined by red fluorescent signal (using the IncuCyte® Live Cell Analysis System, Essen Bioscience). The area under the curve for killing observed during the culture period (˜150 hours) was determined. Percent lysis (% killing) was determined by normalizing the AUC for killing to cultures incubated without the inhibitor.
A similar study was carried out to further assess the effects of different concentrations of LY3039478, including concentrations within the estimated Cmax/Cmin for the inhibitor, on the cytolytic function of anti-BCMA CAR-T cells against OPM2 target cells.

[1] = test system: OPM2 or RPMI-8226 target cells; test: Cytokine production by anti-BCMA CAR-T cells co-cultured with target cells +/- LY3039478; assay type: cell-based, human; conditions: 24 hours co-culture, vs absence of LY3039478
Procedure: The production of cytokines by anti-BCMA CAR-T cells in the presence or absence of LY3039478 was assessed by monitoring cytokine levels in the supernatants of co-cultures of CAR-T cells with BCMA-expressing target cells. CAR-T cells generated as described in this Example above were cultured with either OPM2 or RPMI-8226 target cells in the absence of LY3039478 or in the presence of LY3039478 at concentrations of 0.1 nM, 1 nM, 10 nM, 100 nM, 1000 nM, 10000 nM or 100000 nM (the range covering the estimated human pharmacokinetic range is shown by the boxes in FIGS. 3A-3D). Culture supernatants were harvested after 24 hours, and IFNγ and IL-2 were measured from the culture supernatants.

[2] = test system: RPMI-8226, OPM2, or MM1.S; test: Re-challenge of chronically stimulated anti-BCMA CAR+ T cells with target cells +/- LY3039478; assay type: cell-based, human
Procedure: The effect of a gamma secretase inhibitor compound, LY3039478, on the cytotoxicity of anti-BCMA CAR+ T cells after long-term CAR-specific stimulation was assessed. Anti-BCMA CAR+ T cell compositions, generated as described in Example 2 containing anti-BCMA CAR-expressing CD4+ and CD8+ T cells, were incubated with 50 μg/mL BCMA-Fc conjugated beads for 7 days, under conditions designed to functionally exhaust the CAR T cells.
The CAR-T cells then were re-challenged with antigen-expressing target cells in the presence or absence of LY3039478. […] To assess cytolytic activity, the target cells were labeled with NucLight Red (NLR) to permit tracking by fluorescent microscopy. Killing activity was assessed by measuring the loss of viable target cells over time, as determined by loss of fluorescent signal over time by kinetic fluorescence microscopy (using the INCUCYTE® Live Cell Analysis System, Essen Bioscience). Target fluorescence was monitored over time and was normalized to target cell count.
A killing index was determined as the inverse of the area under the curve (AUC) for target fluorescence over time, and was normalized relative to DMSO vehicle control. […]

multiple myeloma tumor = test: BCMA expression on tumors after oral LY3039478 in an alternative multiple myeloma tumor cell model; assay type: in vivo, mice; conditions: 0.1 mg/kg or 1 mg/kg, two oral administrations
Procedure: Specifically, NOD.Cg.PrkdescidIL2rgtm1 Wjl/SzJ (NSG) mice were injected subcutaneously (s.c.) with 1E+07 RPMI-8226 cells modified to express GFP and firefly luciferase (RPMI-8226 ffluc) and tumors were allowed to grow. […]
FIG. 6 depicts analysis of blood samples, taken at 0, 0.5, 2, 6, 18, 24, 36, and 48 hour post-administration, for plasma levels of the drug. […] Tumor cells at 2 hours, 24 hours or 48 hours after administration of LY3039478 or vehicle control in the study were assessed for surface expression of BCMA.

Structure (SMILES): C[C@H](NC(=O)CCC(F)(F)F)C(=O)N[C@@H]1C(=O)N(CCO)c2ncccc2-c2ccccc21 [LY3039478, 4,4,4-trifluoro-N-[(1S)-2-[[(7S)-5-(2-hydroxyethyl)-6-oxo-7H-pyrido[2,3-d][3]benzazepin-7-yl]amino]-1-methyl-2-oxo-ethyl]butanamide]
- IC50 (OPM2 target cells): 0.1 to 0.25 nM
- production of IFN-gamma in supernatant [1]: increased
- production of IL-2 in supernatant [1]: increased
- function of chronically stimulated anti-BCMA CAR-expressing T cells to produce cytokines (TNF-alpha, IFN-gamma, IL-2) ([2]; 1 μM LY3039478, 24 hours, E:T 0.3:1 and 1:1): improved function
- cytolytic activity of chronically stimulated anti-BCMA CAR+ T cells ([2]; 1 μM LY3039478 vs DMSO, E:T 0.3:1): improved cytolytic activity
- BCMA expression on tumors (multiple myeloma tumor): Increased BCMA expression
